Test results as given in patent publication US20020137929A1, “1 - (3-heterocyclylphenyl) isothiourea, -isourea, -guanidine and -amidine herbicidal agents” (Intellectual Property Department, BASF Aktiengesellschaft, priority 1998, published 2002).

Tests used:
ABUTH (Velvetleaf) = test: Postemergence herbicidal evaluation; assay type: in vivo, Abutilon theophrasti; settings: postemergence
In short: (§1)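 Two-week-old seedlings sprayed with compound in 50/50 acetone/water plus 0.5% TWEEN 20, at about 0.0156 to 0.500 kg/ha, nozzle at 40 psi. Kept in greenhouse; rated visually 4-5 weeks after treatment on a 0-9 scale versus control, repeat tests averaged.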

AMBEL (Ragweed, Common) = test: Postemergence herbicidal evaluation; assay type: in vivo, Ambrosia artemisifolia; settings: postemergence
In short: as §1

[1] = tested on: IPOHE (Morningglory, Ivyleaf); test: Postemergence herbicidal evaluation; assay type: in vivo, Ipomoea hederacea; settings: postemergence
In short: as §1

ECHCG (Barnyardgrass) [2] = test: Postemergence herbicidal evaluation; assay type: in vivo, Echinochloa crus-galli; settings: postemergence
In short: as §1

SETVI (Foxtail, Green) = test: Postemergence herbicidal evaluation; assay type: in vivo, Setaria viridis; settings: postemergence
In short: as §1

[3] = tested on: GLXMAW (Soybean, Williams); test: Postemergence herbicidal evaluation; assay type: in vivo, Glycine max, (L.) Merr. cv Williams; settings: postemergence
In short: as §1

[4] = tested on: TRZAWR (Wheat, Winter, cv Riband); test: Postemergence herbicidal evaluation; assay type: in vivo, Triticum aestivum; settings: postemergence
In short: as §1

CASOB (Sicklepod) = test: Preemergence herbicidal evaluation; assay type: in vivo, Cassia obtusifolia; settings: rated 4-5 weeks after treatment
In short: (§2)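 Scores (0–9) reflect visual comparison with control plants for stand, vigor, malformation, size and chlorosis. Compound was applied to the soil after sowing, before emergence, as an aqueous acetone spray (about 0.0156–0.500 kg/ha), and cups were kept in a greenhouse for 4–5 weeks.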

[5] = tested on: CHEAL (Lambsquarters, Common); test: Preemergence herbicidal evaluation; assay type: in vivo, Chenopodium album; settings: rated 4-5 weeks after treatment
In short: as §2

GALAP (Galium) = test: Preemergence herbicidal evaluation; assay type: in vivo, Galium aparine; settings: rated 4-5 weeks after treatment
In short: as §2

[6] = tested on: IPOHE (Morningglory, Ivyleaf); test: Preemergence herbicidal evaluation; assay type: in vivo, Ipomoea hederacea; settings: rated 4-5 weeks after treatment
In short: as §2

ECHCG (Barnyardgrass) [7] = test: Preemergence herbicidal evaluation; assay type: in vivo, Echinochloa crus-galli; settings: rated 4-5 weeks after treatment
In short: as §2

ZEAMX (Corn, Field) = test: Preemergence herbicidal evaluation; assay type: in vivo, Zea mays; settings: rated 4-5 weeks after treatment
In short: as §2

[8] = rate 0.0313 kg/ha, rating scale 0-9
[9] = rate 0.0625 kg/ha, rating scale 0-9
[10] = rate 0.1250 kg/ha, rating scale 0-9
[11] = rate 0.2500 kg/ha, rating scale 0-9

Structure (SMILES): Cc1ccccc1CN1C(=O)CSC1=Nc1cc(-n2c(=O)cc(C(F)(F)F)n(C)c2=O)c(F)cc1Cl [Compound 129, 3-{4-Chloro-2-fluoro-5-{[3-(o-methylbenzyl)-4-oxo-2-thiazolidinylidene]amino}phenyl}-1-methyl-6-(trifluoromethyl)-2,4 (1H,3H)-pyrimidinedione]
- Herbicidal rating ABUTH (ABUTH (Velvetleaf); rate 0.0156 kg/ha): 9.0
- Herbicidal rating ABUTH (ABUTH (Velvetleaf); rate 0.0313 kg/ha): 9.0
- Herbicidal rating ABUTH (ABUTH (Velvetleaf); rate 0.0625 kg/ha): 9.0
- Herbicidal rating AMBEL (AMBEL (Ragweed, Common); rate 0.0156 kg/ha): 9.0
- Herbicidal rating AMBEL (AMBEL (Ragweed, Common); rate 0.0313 kg/ha): 9.0
- Herbicidal rating AMBEL (AMBEL (Ragweed, Common); rate 0.0625 kg/ha): 9.0
- Herbicidal rating IPOHE ([1]; rate 0.0156 kg/ha): 9.0
- Herbicidal rating IPOHE ([1]; rate 0.0313 kg/ha): 9.0
- Herbicidal rating IPOHE ([1]; rate 0.0625 kg/ha): 9.0
- Herbicidal rating ECHCG (ECHCG (Barnyardgrass) [2]; rate 0.0156 kg/ha): 1.0
- Herbicidal rating ECHCG (ECHCG (Barnyardgrass) [2]; rate 0.0313 kg/ha): 2.0
- Herbicidal rating ECHCG (ECHCG (Barnyardgrass) [2]; rate 0.0625 kg/ha): 3.0
- Herbicidal rating SETVI (SETVI (Foxtail, Green); rate 0.0156 kg/ha): 2.0
- Herbicidal rating SETVI (SETVI (Foxtail, Green); rate 0.0313 kg/ha): 3.0
- Herbicidal rating SETVI (SETVI (Foxtail, Green); rate 0.0625 kg/ha): 5.0
- Herbicidal rating GLXMAW ([3]; rate 0.0156 kg/ha): 5.0
- Herbicidal rating GLXMAW ([3]; rate 0.0313 kg/ha): 5.0
- Herbicidal rating GLXMAW ([3]; rate 0.0625 kg/ha): 6.0
- Herbicidal rating TRZAWR ([4]; rate 0.0156 kg/ha): 3.0
- Herbicidal rating TRZAWR ([4]; rate 0.0313 kg/ha): 3.5
- Herbicidal rating TRZAWR ([4]; rate 0.0625 kg/ha): 3.5
- Preemergence herbicidal rating CASOB (CASOB (Sicklepod); rate 0.0156 kg/ha): 1.0
- Preemergence herbicidal rating CASOB (CASOB (Sicklepod); rate 0.0313 kg/ha): 1.0
- Preemergence herbicidal rating CASOB (CASOB (Sicklepod); rate 0.0625 kg/ha): 1.0
- Preemergence herbicidal rating CASOB (CASOB (Sicklepod); rate 0.1250 kg/ha): 7.0
- Preemergence herbicidal rating CASOB (CASOB (Sicklepod); rate 0.2500 kg/ha): 8.0
- Preemergence herbicidal rating CHEAL ([5]; rate 0.0156 kg/ha): 4.0
- Preemergence herbicidal rating CHEAL ([5]; rate 0.0313 kg/ha): 3.0
- Preemergence herbicidal rating CHEAL ([5]; rate 0.0625 kg/ha): 9.0
- Preemergence herbicidal rating CHEAL ([5]; rate 0.1250 kg/ha): 9.0
- Preemergence herbicidal rating CHEAL ([5]; rate 0.2500 kg/ha): 9.0
- Preemergence herbicidal rating GALAP (GALAP (Galium); rate 0.0156 kg/ha): 1.0
- Preemergence herbicidal rating GALAP (GALAP (Galium); rate 0.0313 kg/ha): 1.0
- Preemergence herbicidal rating GALAP (GALAP (Galium); rate 0.0625 kg/ha): 1.0
- Preemergence herbicidal rating GALAP (GALAP (Galium); rate 0.1250 kg/ha): 0.0
- Preemergence herbicidal rating GALAP (GALAP (Galium); rate 0.2500 kg/ha): 0.0
- Preemergence herbicidal rating IPOHE ([6]; rate 0.0156 kg/ha): 0.0
- Preemergence herbicidal rating IPOHE ([6]; rate 0.0313 kg/ha): 0.0
- Preemergence herbicidal rating IPOHE ([6]; rate 0.0625 kg/ha): 0.0
- Preemergence herbicidal rating IPOHE ([6]; rate 0.1250 kg/ha): 9.0
- Preemergence herbicidal rating IPOHE ([6]; rate 0.2500 kg/ha): 9.0
- Preemergence herbicidal rating ECHCG (ECHCG (Barnyardgrass) [7]; rate 0.0156 kg/ha): 0.0
- Preemergence herbicidal rating ECHCG (ECHCG (Barnyardgrass) [7]; rate 0.0313 kg/ha): 0.0
- Preemergence herbicidal rating ECHCG (ECHCG (Barnyardgrass) [7]; rate 0.0625 kg/ha): 0.0
- Preemergence herbicidal rating ECHCG (ECHCG (Barnyardgrass) [7]; rate 0.1250 kg/ha): 1.0
- Preemergence herbicidal rating ECHCG (ECHCG (Barnyardgrass) [7]; rate 0.2500 kg/ha): 0.0
- Preemergence herbicidal rating ZEAMX (ZEAMX (Corn, Field); rate 0.0156 kg/ha): 0.0
- Preemergence herbicidal rating ZEAMX (ZEAMX (Corn, Field); rate 0.0313 kg/ha): 0.0
- Preemergence herbicidal rating ZEAMX (ZEAMX (Corn, Field); rate 0.0625 kg/ha): 0.0
- Preemergence herbicidal rating ZEAMX (ZEAMX (Corn, Field); rate 0.1250 kg/ha): 1.0
- Preemergence herbicidal rating ZEAMX (ZEAMX (Corn, Field); rate 0.2500 kg/ha): 1.0

Structure (SMILES): Cn1c(C(F)(F)F)cc(=O)n(-c2cc(N=C3SCC(=O)N3Cc3ccccn3)c(Cl)cc2F)c1=O [Compound 131]
- Herbicidal rating ABUTH (ABUTH (Velvetleaf); rate 0.0156 kg/ha): 7.0
- Herbicidal rating ABUTH (ABUTH (Velvetleaf); rate 0.0313 kg/ha): 9.0
- Herbicidal rating ABUTH (ABUTH (Velvetleaf); rate 0.0625 kg/ha): 9.0
- Herbicidal rating AMBEL (AMBEL (Ragweed, Common); rate 0.0156 kg/ha): 7.0
- Herbicidal rating AMBEL (AMBEL (Ragweed, Common); rate 0.0313 kg/ha): 9.0
- Herbicidal rating AMBEL (AMBEL (Ragweed, Common); rate 0.0625 kg/ha): 9.0
- Herbicidal rating IPOHE ([1]; rate 0.0156 kg/ha): 7.0
- Herbicidal rating IPOHE ([1]; rate 0.0313 kg/ha): 9.0
- Herbicidal rating IPOHE ([1]; rate 0.0625 kg/ha): 9.0
- Herbicidal rating ECHCG (ECHCG (Barnyardgrass) [2]; rate 0.0156 kg/ha): 2.0
- Herbicidal rating ECHCG (ECHCG (Barnyardgrass) [2]; rate 0.0313 kg/ha): 2.0
- Herbicidal rating ECHCG (ECHCG (Barnyardgrass) [2]; rate 0.0625 kg/ha): 2.0
- Herbicidal rating SETVI (SETVI (Foxtail, Green); rate 0.0156 kg/ha): 3.0
- Herbicidal rating SETVI (SETVI (Foxtail, Green); rate 0.0313 kg/ha): 4.0
- Herbicidal rating SETVI (SETVI (Foxtail, Green); rate 0.0625 kg/ha): 5.0
- Herbicidal rating GLXMAW ([3]; rate 0.0156 kg/ha): 4.5
- Herbicidal rating GLXMAW ([3]; rate 0.0313 kg/ha): 5.0
- Herbicidal rating GLXMAW ([3]; rate 0.0625 kg/ha): 5.5
- Herbicidal rating TRZAWR ([4]; rate 0.0156 kg/ha): 3.0
- Herbicidal rating TRZAWR ([4]; rate 0.0313 kg/ha): 3.0
- Herbicidal rating TRZAWR ([4]; rate 0.0625 kg/ha): 3.0
- Preemergence herbicidal rating CASOB (CASOB (Sicklepod); [8]): 0.0
- Preemergence herbicidal rating CASOB (CASOB (Sicklepod); [9]): 0.0
- Preemergence herbicidal rating CASOB (CASOB (Sicklepod); [10]): 0.0
- Preemergence herbicidal rating CASOB (CASOB (Sicklepod); [11]): 2.0
- Preemergence herbicidal rating CHEAL [5, 8]: 4.0
- Preemergence herbicidal rating CHEAL [5, 9]: 9.0
- Preemergence herbicidal rating CHEAL [5, 10]: 9.0
- Preemergence herbicidal rating CHEAL [5, 11]: 9.0
- Preemergence herbicidal rating GALAP (GALAP (Galium); [8]): 0.0
- Preemergence herbicidal rating GALAP (GALAP (Galium); [9]): 3.0
- Preemergence herbicidal rating GALAP (GALAP (Galium); [10]): 2.0
- Preemergence herbicidal rating GALAP (GALAP (Galium); [11]): 9.0
- Preemergence herbicidal rating IPOHE [6, 8]: 0.0
- Preemergence herbicidal rating IPOHE [6, 9]: 0.0
- Preemergence herbicidal rating IPOHE [6, 10]: 0.0
- Preemergence herbicidal rating IPOHE [6, 11]: 0.0
- Preemergence herbicidal rating ECHCG (ECHCG (Barnyardgrass) [7]; [8]): 0.0
- Preemergence herbicidal rating ECHCG (ECHCG (Barnyardgrass) [7]; [9]): 0.0
- Preemergence herbicidal rating ECHCG (ECHCG (Barnyardgrass) [7]; [10]): 0.0
- Preemergence herbicidal rating ECHCG (ECHCG (Barnyardgrass) [7]; [11]): 2.0
- Preemergence herbicidal rating ZEAMX (ZEAMX (Corn, Field); [8]): 0.0
- Preemergence herbicidal rating ZEAMX (ZEAMX (Corn, Field); [9]): 0.0
- Preemergence herbicidal rating ZEAMX (ZEAMX (Corn, Field); [10]): 0.0
- Preemergence herbicidal rating ZEAMX (ZEAMX (Corn, Field); [11]): 0.0
